The values below come from patent publication US20040067998A1, “Antifungal and/or antiparasitic pharmaceutical composition and novel indole derivatives as active principle of such a composition” (priority 2003, published 2004).

Each structure is given as a SMILES string. Values after ≈ are worked out from the molar mass of the structure shown. Values joined by “and” are separate entries in the source; they are usually repeats but may differ in a detail not shown here. Equal values may be shown once. Bounds are passed on as bounds.

In the first experiment the test system is Aspergillus fumigatus (strain n°AF 980003). Put plainly: Antifungal activity on a clinical strain of Aspergillus fumigatus (Alamar Blue microplate test). The conditions noted are these: strain AF980003; read-out: CMI or CI80 Aspergillus fumigatus (AF980003). The format is cell-based.
Regarding `CCCC(c1cn(Cc2ccc(Cl)cc2)c2ccccc12)n1ccnc1.O=C(O)/C=C/C(=O)O` (stereo not shown) [65f], the MIC is over 100 µM.

For `CCCCC(c1cn(Cc2ccc(Cl)cc2)c2ccccc12)n1ccnc1.O=C(O)/C=C/C(=O)O` (stereo not shown) [66f], the MIC is over 100 µM.

The subject of a further experiment is Candida albicans (strain n° CA980001). Put plainly: Antifungal activity on a clinical strain of Candida albicans (MTT colorimetric microplate test). The format is cell-based. As to conditions: Candida albicans; strain CA980001; 24 h at 37° C., MTT; read-out: CMI or CI80 Candida albicans (CA980001).
As to `CCn1c(C(c2ccc(F)cc2)n2ccnc2)c(C)c2ccccc21` (stereo not shown) [Cpsé 31, 1-Ethyl-2-[(4-fluorophenyl)(1H-imidazol-1-yl)methyl]-3-methyl-1H-indole], the MIC amounted to 58 ± 4 µM (≈ 19.3 µg/mL).

Staying with this experiment, now noted: strain CA980001.
With `CCn1c(C(c2cccc(Br)c2)n2ccnc2)c(C)c2ccccc21.O=[N+]([O-])O` (stereo not shown) [26n], the “CMI or CI80 Candida albicans (CA980001)” value was 60 ± 1 μM and 27 ± 1 μg/mL.

Take `CCn1c(C(c2ccc(Br)cc2)n2ccnc2)c(C)c2ccccc21.O=[N+]([O-])O` (stereo not shown) [27n]: the “CMI or CI80 Candida albicans (CA980001)” value is 57 ± 4 μM and 25 ± 2 μg/mL.

On to `CCn1c(C(c2cccc(Cl)c2)n2ccnc2)c(C)c2ccccc21.O=[N+]([O-])O` (stereo not shown) [28n], for which the “CMI or CI80 Candida albicans (CA980001)” value is 58 ± 2 μM and 24 ± 1 μg/mL.

As to `CCn1c(C(c2ccc(Cl)cc2)n2ccnc2)c(C)c2ccccc21.O=[N+]([O-])O` (stereo not shown) [29n], the “CMI or CI80 Candida albicans (CA980001)” value is 6 ± 1 μM and 2 ± 1 μg/mL.

Regarding `CCn1cc(C(c2cccc(Cl)c2)n2ccnc2)c2ccccc21.O=[N+]([O-])O` (stereo not shown) [40n], the “CMI or CI80 Candida albicans (CA980001)” value is 7 ± 1 μM and 3.1 ± 1 μg/mL.

Turning to `CCn1cc(C(c2ccc(Cl)cc2)n2ccnc2)c2ccccc21.O=[N+]([O-])O` (stereo not shown) [41n], the “CMI or CI80 Candida albicans (CA980001)” value is 19 ± 10 μM and 8 ± 4 μg/mL.

For the molecule `CCn1cc(C(c2ccc(Cl)cc2Cl)n2ccnc2)c2ccccc21.O=[N+]([O-])O` (stereo not shown) [42n], the “CMI or CI80 Candida albicans (CA980001)” value is 73 ± 3 μM and 32 ± 1 μg/mL.

For `CCn1ccc2cccc(C(c3ccc(Cl)cc3)n3ccnc3)c21.O=[N+]([O-])O` (stereo not shown) [56n], the “CMI or CI80 Candida albicans (CA980001)” value worked out at 0.16 µg/mL.

For `CCCCC(c1cn(Cc2ccc(Cl)cc2)c2ccccc12)n1ccnc1.O=C(O)/C=C/C(=O)O` (stereo not shown) [66f], the “CMI or CI80 Candida albicans (CA980001)” value was 7 ± 0.1 μM and 3.46 μg/mL.

In the case of `CCn1c(C(c2ccc(Cl)cc2Cl)n2ccnc2)c(C)c2ccccc21` (stereo not shown) [compound 30], the “CMI or CI80 Candida albicans (CA980001)” value was 76 ± 2 μM and 25 ± 1 μg/mL.

Staying with this experiment, now noted: strain CA980001; 24 h at 37° C., MTT.
Take `Fc1ccc(Cn2c(Cn3ccnc3)cc3ccccc32)cc1.O=[N+]([O-])O` [3n]: the “CMI or CI80 Candida albicans (CA980001)” value was 16 ± 6 μM and 6 ± 2 μg/ml.

`N#Cc1ccc(Cn2cc(Cn3ccnc3)c3cc(Br)ccc32)cc1` [compound 13]: the “CMI or CI80 Candida albicans (CA980001)” value is 59 ± 5 μM and 23 ± 2 μg/ml.

The experiment is the same for the next values; noted with them: strain CA980001; 24 h at 37° C., MTT; listed as 18.
Turning to `CCn1c(C(c2ccc(F)cc2)n2ccnc2)c(C)c2ccccc21` (stereo not shown) [Cpsé 31, 1-Ethyl-2-[(4-fluorophenyl)(1H-imidazol-1-yl)methyl]-3-methyl-1H-indole], the “CMI or CI80 Candida albicans (CA980001)” value is 18 ± 1 µg/mL.

The same experiment, now with this note: strain CA980001; read-out: CMI or CI80 Candida albicans (CA980001).
On to `CCn1ccc2cccc(C(c3ccc(Cl)cc3)n3ccnc3)c21.O=[N+]([O-])O` (stereo not shown) [56n], for which the MIC was found to be 0.4 µM.

Consider `CCCC(c1cn(Cc2ccc(Cl)cc2)c2ccccc12)n1ccnc1.O=C(O)/C=C/C(=O)O` (stereo not shown) [65f], for which the MIC is listed as over 100 µM.

As for `OC(Cn1cncn1)(Cn1ccc2ccccc21)c1ccc(C(F)(F)F)cc1` (stereo not shown) [compound 79], the MIC is recorded as under 0.001 µM.

For the molecule `CC(n1ccc2ccccc21)C(O)(Cn1cncn1)c1ccc(F)cc1F` (stereo not shown) [compound 81], the MIC was under 0.001 µM.

Staying with this experiment, now noted: summary of Tables 27 to 40.
`CCn1c(C(c2ccc(Cl)cc2)n2ccnc2)c(C)c2ccccc21.O=[N+]([O-])O` (stereo not shown) [29n]: the “activity of inhibition of Candida albicans (in words)” value (from here on “activity of inhibition … (in words)”) is on record as “significant activity”.

For `CCn1cc(C(c2cccc(Cl)c2)n2ccnc2)c2ccccc21.O=[N+]([O-])O` (stereo not shown) [40n], the “activity of inhibition … (in words)” value is recorded as “significant activity”.

Take `CCn1ccc2cccc(C(c3ccc(Cl)cc3)n3ccnc3)c21.O=[N+]([O-])O` (stereo not shown) [56n]: the “activity of inhibition … (in words)” value was “most active”.

For the molecule `CCCCC(c1cn(Cc2ccc(Cl)cc2)c2ccccc12)n1ccnc1.O=C(O)/C=C/C(=O)O` (stereo not shown) [66f], the “activity of inhibition … (in words)” value was “significant activity”.

A further experiment concerns promastigote stage of Leishmania mexicana. Put plainly: Antiparasitic activity on the promastigote form of Leishmania (MTT).
Details: not given
The format is cell-based.
Take `CCCC(c1cn(Cc2ccc(Cl)cc2)c2ccccc12)n1ccnc1.O=C(O)/C=C/C(=O)O` (stereo not shown) [65f]: the “CI50 Leishmania mexicana Promastigotes” value was found to be 37.7 ± 4.5 µg/mL.

The experiment is the same for the next values; noted with them: promastigotes.
As for `CCCCC(c1cn(Cc2ccc(Cl)cc2)c2ccccc12)n1ccnc1.O=C(O)/C=C/C(=O)O` (stereo not shown) [66f], the “CI50 Leishmania mexicana Promastigotes” value was found to be 2.6 ± 0.03 µg/mL.

The same experiment, now with this note: promastigotes; read-out: CI50 Leishmania mexicana Promastigotes.
For the molecule `CCCCC(c1cn(Cc2ccc(Cl)cc2)c2ccccc12)n1ccnc1.O=C(O)/C=C/C(=O)O` (stereo not shown) [66f], the IC50 came out at 5.4 ± 0.06 µM.

The experiment is the same for the next values; noted with them: read-out: CI50 Leishmania mexicana Promastigotes.
With `CCCC(c1cn(Cc2ccc(Cl)cc2)c2ccccc12)n1ccnc1.O=C(O)/C=C/C(=O)O` (stereo not shown) [65f], the IC50 was 78.7 ± 9.5 µM.
